Results published in US12256739B2, “Herbicidal mixtures comprising L-glufosinate or its salt and at least one protoporphyrinogen-IX oxidase inhibitor” (BASF SE, priority 2017, dated 2025).

What was measured:
Assay in all cases: Post emergence treatment, pot test, herbicidal activity
Assay type in all cases: in vivo
[1] = system: CYPIR (Cyperus iria); conditions: scale from 0 to 100
Source text: (§1) Synergism can be described as an interaction where the combined effect of two or more compounds is greater than the sum of the individual effects of each of the compounds. The pres-ence of a synergistic effect in terms of percent control, between two mixing partners (X and Y) can be calculated using the Colby equation (Colby, S. R., 1967, Calculating Synergistic and Antagonistic Responses in Herbicide Combinations, Weeds, 15, 21-22):
(§2) When the observed combined control effect is greater than the expected (calculated) combined control effect (E), then the combined effect is synergistic.
(§3) However, the weed control afforded by the compounds, mixtures or compositions is not limited to these species. The analysis of synergism or antagonism between the mixtures or compositions was determined using Colby's equation.
(§4) The culture containers used were plastic flowerpots containing loamy sand with approximately 3.0% of humus as the substrate. The seeds of the test plants were sown separately for each species and/or resistant biotype. For the pre-emergence treatment, the active ingredients, which had been suspended or emulsified in water, were applied directly after sowing by means of finely distributing nozzles. The containers were irrigated gently to promote germination and growth and subsequently covered with transparent plastic hoods until the plants had rooted. This cover caused uniform germination of the test plants, unless this had been impaired by the active ingredients. For the post-emergence treatment, the test plants were first grown to a height of 3 to 15 cm, depending on the plant habit, and only then treated with the active ingredients which had been suspended or emulsified in water. For this purpose, the test plants were either sown directly and grown in the same containers, or they were first grown separately as seedlings and transplanted into the test containers a few days prior to treatment. Depending on the species, the plants were kept at 10-25° C. or 20-35° C., respectively. The test period extended to 20 days after treatment. During this time, the plants were tended, and their response to the individual treatments was evaluated. The evaluation was carried out by using a scale from 0 to 100. 100 means no emergence of the plants or complete destruction of at least the above-ground parts, and 0 means no damage, or normal course of growth. Data shown are the mean of two replications.
(§5) • L-Glufosinate: 5% EC formulation • Saflufenacil: 342 g/l SC formulation • Compound II-16: 5% EC formulation (Compound II-16: ethyl[3-[2-chloro-4-fluoro-5-(1-methyl-6-trifluoromethyl-2,4-dioxo-1,2,3,4-tetrahydropyrimidin-3-yl)phenoxy]-2-pyridyloxy]acetate) • Trifludimoxazin: 500 g/l SC formulation • Sulfentrazone: 480 g/l SC formulation

[2] = system: ERICA (Erigeron Canadensis, Conyza canadensis); conditions: scale from 0 to 100
Source text: as §1, §2, §3, §4, §5

[3] = system: ECHCG (Echinochloa crus-galli)
Source text: as §1, §2, §3, §4, §5

## CCOC(=O)COc1ncccc1Oc1cc(-n2c(=O)cc(C(F)(F)F)n(C)c2=O)c(F)cc1Cl [Compound II-16, ethyl[3-[2-chloro-4-fluoro-5-(1-methyl-6-trifluoromethyl-2,4-dioxo-1,2,3,4-tetrahydropyrimidin-3-yl)phenoxy]-2-pyridyloxy]acetate]
[1]; Compound II-16 alone, 0.25 g ai/ha
  Herbicidal activity against CYPIR, Found: 0

## Cc1nn(-c2cc(NS(C)(=O)=O)c(Cl)cc2Cl)c(=O)n1C(F)F [Sulfentrazone, sulfentrazone]
[2]; Sulfentrazone alone, 1.25 g ai/ha
  Herbicidal activity against ERICA, Found: 0
[2]; Sulfentrazone alone, 2.5 g ai/ha
  Herbicidal activity against ERICA, Found: 0

## CC(C)N(C)S(=O)(=O)NC(=O)c1cc(-n2c(=O)cc(C(F)(F)F)n(C)c2=O)c(F)cc1Cl [Saflufenacil, saflufenacil]
[3]; Saflufenacil alone, 0.5 g ai/ha, scale from 0 to 100
  Herbicidal activity against ECHCG, Found: 0

## C#CCN1C(=O)C(F)(F)Oc2cc(F)c(-n3c(=O)n(C)c(=S)n(C)c3=O)cc21 [Trifludimoxazin, trifludimoxazin]
[3]; Trifludimoxazin alone, 0.25 g ai/ha, scale from 0 to 100
  Herbicidal activity against ECHCG, Found: 10

## CP(=O)(O)CC[C@H](N)C(=O)O [L-Glufosinate, (2S)-2-amino-4-[hydroxy(methyl)phosphinoyl]butyric acid]
[3]; L-Glufosinate alone, 200 g ai/ha, scale from 0 to 100
  Herbicidal activity against ECHCG, Found: 0
[3]; L-Glufosinate alone, 400 g ai/ha, scale from 0 to 100, mean of two replications
  Herbicidal activity against ECHCG, Found: 65
[2]; L-Glufosinate alone, 75 g ai/ha
  Herbicidal activity against ERICA, Found: 90
[1]; L-Glufosinate alone, 200 g ai/ha
  Herbicidal activity against CYPIR, Found: 0
